Tests used:
HCT-116 = test: Cytotoxicity against human HCT-116 cells assessed as cell viability at 10 uM incubated for 48 hrs by sulforhodamine B assay relative to control; type: functional; settings: read-out: Activity
CCRF-CEM = test: Cytotoxicity against human CCRF-CEM cells assessed as cell viability at 10 uM incubated for 48 hrs by sulforhodamine B assay relative to control; type: functional; settings: read-out: Activity
LOX IMVI = test: Cytotoxicity against human LOX IMVI cells assessed as cell viability at 10 uM incubated for 48 hrs by sulforhodamine B assay relative to control; type: functional; settings: read-out: Activity
SK-MEL-2 = test: Cytotoxicity against human SK-MEL-2 cells assessed as cell viability at 10 uM incubated for 48 hrs by sulforhodamine B assay relative to control; type: functional; settings: read-out: Activity
SK-MEL-28 = test: Cytotoxicity against human SK-MEL-28 cells assessed as reduction in cell viability by MTT assay; type: functional, cell-based
[1] = biological target: Serine/threonine-protein kinase B-raf (Homo sapiens, UniProt P15056); test: Inhibition of human BRAF using MEK1 as substrate by […] assay
SF-295 = test: Cytotoxicity against human SF-295 cells assessed as cell viability at 10 uM incubated for 48 hrs by sulforhodamine B assay relative to control; type: functional; settings: read-out: Activity
NCI-H522 = test: Cytotoxicity against human NCI-H522 cells assessed as cell viability at 10 uM incubated for 48 hrs by sulforhodamine B assay relative to control; type: functional; settings: read-out: Activity
ACHN = test: Cytotoxicity against human ACHN cells assessed as cell viability at 10 uM incubated for 48 hrs by sulforhodamine B assay relative to control; type: functional; settings: read-out: Activity
NCI-H23 = test: Cytotoxicity against human NCI-H23 cells assessed as cell viability at 10 uM incubated for 48 hrs by sulforhodamine B assay relative to control; type: functional; settings: read-out: Activity
OVCAR-8 = test: Cytotoxicity against human OVCAR-8 cells assessed as cell viability at 10 uM incubated for 48 hrs by sulforhodamine B assay relative to control; type: functional; settings: read-out: Activity
[2] = biological target: RAF proto-oncogene serine/threonine-protein kinase (Homo sapiens, UniProt P04049); test: Inhibition of human CRAF using MEK1 as substrate by [gamma-33P]-ATP assay
MDA-MB-435 = test: Cytotoxicity against human MDA-MB-435 cells assessed as cell viability at 10 uM incubated for 48 hrs by sulforhodamine B assay relative to control; type: functional; settings: read-out: Activity
EKVX = test: Cytotoxicity against human EKVX cells assessed as cell viability at 10 uM incubated for 48 hrs by sulforhodamine B assay relative to control; type: functional; settings: read-out: Activity
[3] = biological target: Serine/threonine-protein kinase B-raf (Homo sapiens, UniProt P15056, V600E); test: Inhibition of human BRAF V600E mutant using MEK1 as substrate by […] assay
SR = test: Cytotoxicity against human SR cells assessed as cell viability at 10 uM incubated for 48 hrs by sulforhodamine B assay relative to control; type: functional; settings: read-out: Activity
L132 = test: Cytotoxicity against human L132 cells assessed as reduction in cell viability by MTT assay; type: cell-based
UACC-257 = test: Cytotoxicity against human UACC-257 cells assessed as cell viability at 10 uM incubated for 48 hrs by sulforhodamine B assay relative to control; type: functional; settings: read-out: Activity
U-251 = test: Cytotoxicity against human U-251 cells assessed as cell viability at 10 uM incubated for 48 hrs by sulforhodamine B assay relative to control; type: functional; settings: read-out: Activity
HCC 2998 = test: Cytotoxicity against human HCC 2998 cells assessed as cell viability at 10 uM incubated for 48 hrs by sulforhodamine B assay relative to control; type: functional; settings: read-out: Activity
CAKI-1 = test: Cytotoxicity against human CAKI-1 cells assessed as cell viability at 10 uM incubated for 48 hrs by sulforhodamine B assay relative to control; type: functional; settings: read-out: Activity
NCI-H322M = test: Cytotoxicity against human NCI-H322M cells assessed as cell viability at 10 uM incubated for 48 hrs by sulforhodamine B assay relative to control; type: functional; settings: read-out: Activity
A-375 = test: Cytotoxicity against human A-375 cells assessed as reduction in cell viability by MTT assay; type: functional, cell-based
MDA-MB-468 = test: Cytotoxicity against human MDA-MB-468 cells assessed as cell viability at 10 uM incubated for 48 hrs by sulforhodamine B assay relative to control; type: functional; settings: read-out: Activity

Chain of Serine/threonine-protein kinase B-raf (Homo sapiens, UniProt P15056) (P15056 whole entry): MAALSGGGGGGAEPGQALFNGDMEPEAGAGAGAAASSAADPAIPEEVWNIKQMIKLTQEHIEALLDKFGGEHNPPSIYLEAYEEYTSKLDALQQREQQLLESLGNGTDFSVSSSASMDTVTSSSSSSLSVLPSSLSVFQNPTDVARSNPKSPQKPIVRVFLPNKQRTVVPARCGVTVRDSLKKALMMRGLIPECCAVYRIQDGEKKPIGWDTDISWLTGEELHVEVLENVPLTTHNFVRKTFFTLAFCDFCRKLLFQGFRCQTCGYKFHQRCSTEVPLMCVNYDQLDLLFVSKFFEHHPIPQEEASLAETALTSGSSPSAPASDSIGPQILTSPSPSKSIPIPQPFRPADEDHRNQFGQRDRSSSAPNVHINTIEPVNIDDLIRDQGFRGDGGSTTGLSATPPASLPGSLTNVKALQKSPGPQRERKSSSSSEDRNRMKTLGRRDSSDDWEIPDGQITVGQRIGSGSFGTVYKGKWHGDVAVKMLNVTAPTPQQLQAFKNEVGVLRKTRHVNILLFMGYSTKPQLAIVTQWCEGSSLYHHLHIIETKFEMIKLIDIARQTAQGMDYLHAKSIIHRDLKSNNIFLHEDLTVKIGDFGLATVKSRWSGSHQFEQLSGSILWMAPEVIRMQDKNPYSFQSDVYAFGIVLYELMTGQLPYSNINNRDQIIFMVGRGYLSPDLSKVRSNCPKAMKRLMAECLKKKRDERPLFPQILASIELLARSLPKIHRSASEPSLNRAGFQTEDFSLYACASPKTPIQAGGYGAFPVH
Chain of RAF proto-oncogene serine/threonine-protein kinase (P04049 whole entry): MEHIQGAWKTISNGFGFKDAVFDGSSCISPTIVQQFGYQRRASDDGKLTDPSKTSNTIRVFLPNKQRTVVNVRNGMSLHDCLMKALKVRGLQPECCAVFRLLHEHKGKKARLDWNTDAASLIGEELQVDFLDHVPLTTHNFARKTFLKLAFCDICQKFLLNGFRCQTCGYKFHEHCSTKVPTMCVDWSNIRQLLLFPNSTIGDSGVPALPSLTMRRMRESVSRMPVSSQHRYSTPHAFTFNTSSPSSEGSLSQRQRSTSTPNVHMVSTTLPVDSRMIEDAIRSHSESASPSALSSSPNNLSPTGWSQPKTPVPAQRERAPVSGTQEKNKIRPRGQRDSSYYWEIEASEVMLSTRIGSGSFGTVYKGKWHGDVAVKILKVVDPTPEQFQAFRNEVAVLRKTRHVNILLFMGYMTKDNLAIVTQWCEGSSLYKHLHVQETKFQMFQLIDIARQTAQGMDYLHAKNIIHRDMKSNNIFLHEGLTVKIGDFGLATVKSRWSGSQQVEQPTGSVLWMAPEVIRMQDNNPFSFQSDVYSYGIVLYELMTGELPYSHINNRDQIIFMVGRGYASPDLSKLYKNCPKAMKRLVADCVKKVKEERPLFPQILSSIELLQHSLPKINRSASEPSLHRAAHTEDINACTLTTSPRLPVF
Chain of Serine/threonine-protein kinase B-raf (Homo sapiens, UniProt P15056, V600E) (P15056 2-766 V600E limits assumed): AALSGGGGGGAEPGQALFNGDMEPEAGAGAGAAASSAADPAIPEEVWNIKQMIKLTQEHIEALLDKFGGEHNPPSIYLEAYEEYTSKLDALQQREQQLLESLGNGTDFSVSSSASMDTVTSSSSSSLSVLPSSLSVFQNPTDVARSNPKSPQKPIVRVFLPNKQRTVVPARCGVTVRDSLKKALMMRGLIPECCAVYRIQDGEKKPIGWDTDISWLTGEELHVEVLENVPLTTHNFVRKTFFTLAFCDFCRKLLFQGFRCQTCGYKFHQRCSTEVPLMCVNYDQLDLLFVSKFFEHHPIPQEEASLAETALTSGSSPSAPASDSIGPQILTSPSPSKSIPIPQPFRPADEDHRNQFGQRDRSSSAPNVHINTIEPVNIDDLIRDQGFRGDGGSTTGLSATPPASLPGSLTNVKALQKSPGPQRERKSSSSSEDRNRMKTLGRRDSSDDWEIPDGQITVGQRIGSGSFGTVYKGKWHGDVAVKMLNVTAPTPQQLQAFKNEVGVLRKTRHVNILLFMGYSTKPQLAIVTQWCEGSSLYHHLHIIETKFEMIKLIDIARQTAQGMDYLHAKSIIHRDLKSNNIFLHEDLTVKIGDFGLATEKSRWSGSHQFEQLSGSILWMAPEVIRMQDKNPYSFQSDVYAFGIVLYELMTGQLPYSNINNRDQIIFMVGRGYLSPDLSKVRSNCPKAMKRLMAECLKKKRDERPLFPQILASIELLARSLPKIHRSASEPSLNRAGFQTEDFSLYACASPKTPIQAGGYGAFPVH

| Compound | viability at 10 µM (HCT-116) | viability at 10 µM (CCRF-CEM) | viability at 10 µM (LOX IMVI) | viability at 10 µM (SK-MEL-2) | IC50 (SK-MEL-28) | IC50 [1] | viability at 10 µM (SF-295) | viability at 10 µM (NCI-H522) | viability at 10 µM (ACHN) | viability at 10 µM (NCI-H23) | viability at 10 µM (OVCAR-8) | IC50 [2] | viability at 10 µM (MDA-MB-435) | viability at 10 µM (EKVX) | IC50 [3] | viability at 10 µM (SR) | IC50 (L132) | viability at 10 µM (UACC-257) | viability at 10 µM (U-251) | viability at 10 µM (HCC 2998) | other results |
| --- | --- | --- | --- | --- | --- | --- | --- | --- | --- | --- | --- | --- | --- | --- | --- | --- | --- | --- | --- | --- | --- |
| O=S(=O)(NCCCNc1nccc(-c2c(-c3cccc(F)c3)nc3sccn23)n1)c1ccc(C(F)(F)F)cc1 | 86.2% | 89.4% | 86.7% | 89.9% | 11.7 µM | 0.063 µM | 104% | 85.5% | 87.8% | 90% | 75.7% | 0.04 µM | 74.2% | 87.3% | 0.026 µM | 109% | 320 µM | 110% | 95.1% | 125% | viability at 10 µM (CAKI-1): 67.9%; viability at 10 µM (NCI-H322M): 104%; IC50 (A-375): 4.09 µM; viability at 10 µM (MDA-MB-468): 102% |
| O=C(NCCNc1nccc(-c2c(-c3cccc(F)c3)nc3sccn23)n1)c1ccccc1 | 25.6% | 40.9% | 35.1% | 51.4% | 17 µM | 0.162 µM | 71.4% | 57.9% | 29.1% | 64.9% | 46.8% | 0.312 µM | 27% | 54.4% | 0.037 µM | 29.4% | 200 µM | 63.1% | 59.4% | 73.8% | viability at 10 µM (CAKI-1): 36.4%; viability at 10 µM (NCI-H322M): 64.8%; IC50 (A-375): 5.06 µM; viability at 10 µM (MDA-MB-468): 57.4% |

— ChEMBL document CHEMBL4665642, “Anticancer profile of newly synthesized BRAF inhibitors possess 5-(pyrimidin-4-yl)imidazo[2,1-b]thiazole scaffold” (Bioorg Med Chem, 2019)
